Structures can show the parent of a compound that is named as a salt.
Experiments:
[1] = tested on: Alopecurus; assay: Pre-emergence test/greenhouse; format: in vivo; conditions: 500 g of ai./ha, rated after three weeks vs untreated control
Method: (§1) Solvent: 5 parts by weight of acetone
(§2) Emulsifier: 1 part by weight of alkylaryl polyglycol ether
(§3) To produce a suitable preparation of active compound, 1 part by weight of active compound is mixed with the stated amount of solvent, the stated amount of emulsifier is added and the concentrate is diluted with water to the desired concentration.
(§4) Seeds of the test plants are sown in normal soil. After about 24 hours, the soil is sprayed with the preparation of active compound such that the particular amount of active compound desired is applied per unit area. The concentration of the spray liquor is chosen so that the particular amount of active compound desired is applied in 1000 litre of water per hectare.
(§5) After three weeks, the degree of damage to the plants is rated in % damage in comparison to the development of the untreated control.
(§6) 0%=no effect (like untreated control)

[2] = tested on: Galium; assay: Pre-emergence test/greenhouse; format: in vivo; conditions: 500 g of ai./ha, rated after three weeks vs untreated control
Method: as §1, §2, §3, §4, §5, §6

[3] = tested on: Setaria; assay: Pre-emergence test/greenhouse; format: in vivo; conditions: 500 g of ai./ha, rated after three weeks vs untreated control
Method: as §1, §2, §3, §4, §5, §6

[4] = tested on: Amaranthus; assay: Pre-emergence test/greenhouse; format: in vivo; conditions: 500 g of ai./ha, rated after three weeks vs untreated control
Method: as §1, §2, §3, §4, §5, §6

[5] = tested on: Abutilon; assay: Pre-emergence test/greenhouse; format: in vivo; conditions: 500 g of ai./ha, rated after three weeks vs untreated control
Method: as §1, §2, §3, §4, §5, §6

[6] = tested on: weeds; assay: Pre-emergence test, overall statement; format: in vivo
Method: as §1, §2, §3, §4, §5, §6

[7] = logP determination by reversed-phase HPLC (EEC Directive 79/831 Annex V.A8); format: physicochemical; conditions: reversed-phase C18 HPLC column; a) acidic range: 0.1% aqueous phosphoric acid/acetonitrile gradient, C18, 43° C.
Method: The logP values given in Example 1 and in Table 1 were determined in accordance with EEC Directive 79/831 Annex V.A^8 by HPLC (High Performance Liquid Chromatography) using a reversed-phase column (C 18). Temperature: 43° C.
(a) Mobile phases for the determination in the acidic range: 0.1% aqueous phosphoric acid, acetonitrile; linear gradient from 10% acetonitrile to 90% acetonitrile—the corresponding data are labelled in Table 1 with ^a).
(b) Mobile phases for the determination in the neutral range: 0.01 molar aqueous phosphate buffer solution, acetonitrile; linear gradient from 10% acetonitrile to 90% acetonitrile—corresponding data are labelled in Table 1 with ^b).
Calibration was carried out using unbranched alkan-2-ones (with from 3 to 16 carbon atoms) whose logP values are known (determination of the logP values by the retention times using linear interpolation between two successive alkanones).

[8] = tested on: Xanthium; assay: Post-emergence test/greenhouse; format: in vivo; conditions: 500 g of ai./ha, rated after three weeks vs untreated control
Method: as §1, §2, §3
(§7) Test plants which have a height of 5-15 cm are sprayed with the preparation of active compound such that the particular amounts of active compound desired are applied per unit area. The concentration of the spray liquor is chosen so that the particular amounts of active compound desired are applied in 1000 l of water/ha.
as §5, §6

[9] = tested on: Alopecurus; assay: Post-emergence test/greenhouse; format: in vivo; conditions: 500 g of ai./ha, rated after three weeks vs untreated control
Method: as §1, §2, §3, §7, §5, §6

[10] = tested on: Setaria; assay: Post-emergence test/greenhouse; format: in vivo; conditions: 500 g of ai./ha, rated after three weeks vs untreated control
Method: as §1, §2, §3, §7, §5, §6

[11] = tested on: Sinapis; assay: Post-emergence test/greenhouse; format: in vivo; conditions: 500 g of ai./ha, rated after three weeks vs untreated control
Method: as §1, §2, §3, §7, §5, §6

[12] = tested on: Amaranthus; assay: Post-emergence test/greenhouse; format: in vivo; conditions: 500 g of ai./ha, rated after three weeks vs untreated control
Method: as §1, §2, §3, §7, §5, §6

[13] = tested on: weeds; assay: Post-emergence test, overall statement; format: in vivo
Method: as §1, §2, §3, §7, §5, §6

| Compound | % damage Alopecurus [1] [%] | % damage Galium [2] [%] | % damage Setaria [3] [%] | % damage Amaranthus [4] [%] | % damage Abutilon [5] [%] | activity against weeds [6] | chromatographic logP [7] | % damage Xanthium [8] [%] | % damage Alopecurus [9] [%] | % damage Setaria [10] [%] | % damage Sinapis [11] [%] | % damage Amaranthus [12] [%] | activity against weeds [13] |
| --- | --- | --- | --- | --- | --- | --- | --- | --- | --- | --- | --- | --- | --- |
| CC(F)c1nc(N)nc(NC2CCCc3sccc32)n1 (centres unmarked) [Example 1, 2-amino-4-(1-fluoro-ethyl)-6-(4,5,6,7-tetra-hydrobenzo[b]thiophen-4-yl-amino)-1,3,5-triazine] | 100 | 90 | 100 | 100 | 95 | strong activity | 4.26 | 100 | 95 | 100 | 100 | 100 | strong activity |
| [H]/N=C(/N)N/C(=N/[H])NC1CCCc2sc(C)cc21 (centres unmarked) [Example II-1, 2-methyl-4,5,6,7-tetrahydrobenzo[b]thiophen-4-yl-biguanide hydrochloride] | – | – | – | – | – | – | 1.12 | – | – | – | – | – | – |

From patent US6756342B1, “Substituted thienocycloalk(en) ylamino -1,3,5-triazine” (priority 1999, dated 2004)
